Structures are written as SMILES.

What is called melting point is the temperature, or range, at which the solid turns liquid. The compound `CCc1nn(C2CCCC2)c2c1CCn1c-2nnc1C(C)(C)C` had a melting point of 150 to 151 °C.

Consider `CCN(CC)c1cccc2nc3n(c12)C=CCCN3c1ccc(Cl)cc1Cl`, for which the melting point fell in the range of 105 to 106 °C.

`CCCCCC(=O)ONC(=N)c1ccc(NC(=O)CCCC(=O)Nc2ccc(C(=N)NOC(=O)CCCCC)cc2)cc1` returned a melting point of 182 to 184 °C.

Regarding `O=C1CCC2=C(CCc3cc(Cl)ccc32)N1`, the melting point was in the range of 228 to 230 °C.

In turn, `CC(=O)Nc1nc(-c2ccc(S(=O)(=O)CCO)cc2)cs1` returned a melting point of 258 to 260 °C.

Compound `CCOC(=O)Cc1cc(Br)c(SC(=O)N(C)C)c(Br)c1` yielded a melting point of 105 to 107 °C.

For the compound `CSc1nnc(SCc2ccc(Cl)cc2)s1`, the melting point lay in the range of 77 to 78 °C.

The compound `CCCCC(=N)NC(=O)Nc1ccccc1OCc1ccccc1` came in with a melting point of 145 to 147 °C.

Turning to `CCCCCCCCCCCCc1nnn(C(C(=O)Nc2c(OC)cc(OC)cc2OC)c2ccccc2)n1` (stereo not drawn), the melting point lay within 141 to 145 °C.

Take `CCOC(=O)[C@@H](O)CCNC(=O)[C@@H](CSC(C)=O)Cc1ccccc1C`: the melting point lay in the range of 48 to 52 °C.

In turn, `CCOC(=O)c1c(Nc2ccncc2)c2ccc(Cl)cc2n1CC(=O)N(CC)CC` displayed a melting point of 212 to 214 °C.

With `N#Cc1c[nH]cc1-c1ccccc1Cl`, the melting point was in the range of 138 to 139 °C.

`COc1ccc(-c2cc(=O)cc(N3CCOCC3)s2)cc1`: the melting point lay within 199 to 200 °C.

`O=C1C(=O)c2ccccc2C2=C1SCC1(CCCN(C(=O)c3cccc(Cl)c3)CC1)O2` (stereo not drawn) returned a melting point of 98 to 100 °C.

On to `CC1(C)CCC(C)(C)c2cc3cc(-c4cc(C(=O)O)cs4)ccc3cc21`, for which the melting point lay in the range of 223 to 225 °C.

In turn, `CC(C)(C)OC(=O)N[C@@H](Cc1ccc(O)cc1)C(=O)NCC(=O)NCC(=O)Oc1c(Cl)c(Cl)c(Cl)c(Cl)c1Cl` gave a melting point of 186 °C.

`Cn1nc(-c2c(F)cccc2F)nc1-c1ccc(OCc2ccc(OC(F)(F)F)cc2)c(Cl)c1` came in with a melting point of 132 to 136 °C.

As for `COc1ccc(Cc2cc(O)ccc2OC)nc1`, the melting point lay within 115 to 122 °C.

For the compound `CC(C)(C)NS(=O)(=O)c1cccc(NC(=O)c2cnn3c(C(F)(F)F)cc(-c4ccc(C(F)(F)F)cc4)nc23)c1`, the melting point worked out at 232 °C.

Turning to `CC(C)(C)OC(=O)CC[C@@H](NC(=O)OCc1ccccc1)c1nnn[nH]1`, the melting point fell in the range of 99 to 101 °C.

`CN(C)c1ccc(Cl)cc1[N+](=O)[O-]`: the melting point was 54 to 55 °C.

Regarding `N#CC(C(=O)Nc1ccccc1)C(=O)c1nn(-c2ccccc2)c2c1CSc1ccc(C(=O)NCC(=O)O)cc1-2` (stereo not drawn), the melting point fell in the range of 244 to 250 °C.

As to `CCCC(=O)c1cnc2c(C)cccc2c1Nc1ccccc1C`, the melting point fell in the range of 110 to 112 °C.

In turn, `Cc1ccccc1C1(O)c2cc(NC(=O)CC(C)(C)C)c(C)c(C)c2OC1(C)C` (stereo not drawn) came in with a melting point of 111 to 112 °C.

Compound `CS(=O)(=O)N[C@H]1CC[C@H](CCN2CCC(c3cccc4c3CCO4)CC2)CC1` came in with a melting point of 152 °C.

Compound `CN1C(C(=O)OC2CCCCC2)=C(O)c2ccccc2S1(=O)=O` came in with a melting point of 112 °C.

On to `CC(=O)NCc1nc(-c2ccc3c(c2)Nc2ccccc2S3)cs1`, for which the melting point lay within 219 to 221 °C.

In the case of `Cc1ccc(N(c2ccc(-c3ccc(N(c4ccccc4)c4cccc(C)c4)cc3)cc2)c2ccc3ccc4cccc5ccc2c3c45)cc1`, the melting point was 172 to 173 °C.

On to `Cc1ccc2c(c1)N(C(=O)CN(C)C)c1ccccc1S(=O)(=O)N2C`, for which the melting point lay within 135 to 137 °C.

For `CCOC(=O)C(Cc1cccc(OCC(F)(F)F)c1)C(=O)c1ccc(F)cc1` (stereo not drawn), the melting point lay within 48 to 49 °C.

Regarding `CCOC(=O)Nn1cccc1C(=O)c1ccccc1F`, the melting point fell in the range of 78 to 80 °C.

In the case of `CC(Nc1ccc(Oc2ccc(O)cc2)cc1)C(=O)O` (stereo not drawn), the melting point stood at 188 °C.

As to `CCn1nc(N)nc1NCCCOc1cccc(CN2CCCCC2)c1`, the melting point fell in the range of 116 to 118 °C.

`O=C(Cl)c1cc2[nH]c3cc(Cl)ccc3c2o1` registered a melting point of 232 to 233 °C.

As to `COC(=O)c1nc(NC(=O)c2ccccn2)ccc1Oc1nc(OC)cc(OC)n1`, the melting point lay in the range of 146 to 150 °C.

Turning to `COc1ccc(O)c2c1C1(CCC2)OCCO1`, the melting point is 139 to 140 °C.

Regarding `CC(=O)NNC(=O)NC1c2ccccc2Oc2ccccc21`, the melting point lay in the range of 226 to 228 °C.

Consider `COc1ccc(-n2c(=O)cc(C(F)(F)F)n(C)c2=O)c2c1CC(C)(C)O2`, for which the melting point was 201 to 203 °C.

`Clc1ccc2c(C3CCNCC3)n[nH]c2c1` displayed a melting point of 174 to 176 °C.

`CCOC(=O)c1cc2n(C)c3ccc(F)cc3c(=O)n2n1` gave a melting point of 288 to 290 °C.

In turn, `Cc1cc(C)n(-c2nc(Nc3ccc(Cl)cc3)c3ccccc3n2)n1` gave a melting point of 209 to 211 °C.

In turn, `CC(C)(Cc1ccc(OC(F)(F)F)cc1)C(=O)C(C)(C)n1cncn1` registered a melting point of 100 °C.

As for `Cc1nc2c(-c3cccc(N4CCN(CCO)CC4)c3)cnn2c(N)c1-c1ccc(F)cc1`, the melting point was 209 to 212 °C.

The compound `CC(O)CC#Cc1cc(CN2CCOCC2)cc2c(=O)c(C(=O)NCc3ccc(Cl)cc3)cn(C)c12` (stereo not drawn) came in with a melting point of 178 to 180 °C.

The compound `c1ccc(-c2cc3ccc4ccccc4n3n2)cc1` displayed a melting point of 85 to 86 °C.

As for `O=C(Oc1ccc2cc3cc(OC(=O)c4ccc(O)cc4)ccc3cc2c1)c1ccc(O)cc1`, the melting point amounted to 324 °C.

Compound `c1ccc(N2CCN(Cc3n[nH]c4ccccc34)CC2)cc1` displayed a melting point of 196 to 197 °C.

As for `Cc1cnc2sc(S(=O)(=O)Cc3ccccc3)nn2c1=O`, the melting point was in the range of 171 to 173 °C.

On to `O=[N+]([O-])c1cc(OCc2ccccc2)ccc1Cl`, for which the melting point was 50 to 50.5 °C.

`N#CNC(=S)Nc1ccc(OCc2ccccc2)cc1` returned a melting point above 270 °C.

Compound `COc1cc2c(cc1OC)C1=C(C#N)SCCC(=O)N1CC2` returned a melting point of 192 to 194 °C.

As for `Cc1ccc(C2=NN(c3ccccc3)C(=O)C2)cc1`, the melting point was in the range of 112 to 113 °C.

Turning to `N#Cc1ccc2c(c1)C(c1ccccc1F)=NCC(OP(=O)(N1CCOCC1)N1CCOCC1)=N2`, the melting point was 194 to 197 °C.

For the compound `O=C(O)c1cc(COC2CCCCO2)ccc1COC1CCCCO1` (stereo not drawn), the melting point is 107 to 108 °C.

`O=[N+]([O-])c1cccc2c1c([N+](=O)[O-])cc1nc(O)c(O)nc12` registered a melting point above 300 °C.

In turn, `CCOC(=O)c1ccc(/C=C/C(=O)O)cn1` registered a melting point of 201 to 202 °C.

The compound `Cc1cc(C)cc(-c2cc(C)cn2-c2ccc(S(N)(=O)=O)cc2)c1` yielded a melting point of 163 to 166 °C.

`O=C(SCCC(=O)N1CCC[C@H]1C(=O)O)c1ccccc1` displayed a melting point of 101 to 102 °C.

In turn, `Cc1ccc(C(=O)Nc2nc(-c3ccccc3)c(-c3nc4ccccc4c(=O)n3-c3ccccc3)s2)cc1` gave a melting point above 275 °C.

The compound `O=C1CC2(C(=O)N1)C(=O)N(Cc1ccc(Br)cc1F)C(=O)c1ccccc12` (stereo not drawn) displayed a melting point of 112 to 114 °C.

`CNc1nc(Cl)nc2c1ncn2C1CC(F)C(CO)O1` (stereo not drawn) registered a melting point of 181 to 182 °C.

For `Cc1oc(-c2ccccc2)nc1COc1cncc(COc2ccccc2CC(=O)O)c1`, the melting point fell in the range of 207 to 208 °C.

`O=C1CCC(N2C(=O)c3cccc(CNC(=O)c4cncnc4)c3C2=O)C(=O)N1` (stereo not drawn) gave a melting point above 260 °C.

In turn, `Nc1cc2c(Nc3ccc(Cl)c(Br)c3)ncnc2cn1` returned a melting point of 271 to 274 °C.

In the case of `CN(C)C(=O)NC1CCC(=O)c2ccccc21` (stereo not drawn), the melting point was in the range of 157 to 162 °C.

Compound `CCC(=O)N1Cc2cn[nH]c2-c2cc(N)ccc21` returned a melting point of 218 to 220 °C.

On to `COC(=O)C1Cc2c(OC)cccc2N1S(=O)(=O)c1ccc(-c2ccc(F)cc2F)cc1` (stereo not drawn), for which the melting point amounted to 162 °C.

For the compound `COC(=O)c1nc(C)c(-c2ccncc2)s1`, the melting point lay in the range of 121 to 123 °C.

With `O=[N+]([O-])c1ccc(-c2oncc2CCCO)cc1`, the melting point lay in the range of 132 to 133 °C.

`CS(=O)(=O)c1ccc(-c2nc3cc(C4CCN(C(=O)OCc5ccccc5)CC4)ccc3o2)c(F)c1` showed a melting point of 172 to 175 °C.

The compound `O=C(O)C1=CCC(c2ccccc2)(c2ccccc2)CC1` displayed a melting point of 227 to 229 °C.

`C=CCOc1ccc(-c2cc(C(=O)NCc3ccc(OC(C)(C)C(=O)O)c(C)c3)nn2C)cc1` gave a melting point of 138 °C.

With `CCN(c1nc(C)cc(C(=O)O)n1)c1ccc(C(C)C)cc1Br`, the melting point was in the range of 102 to 104 °C.

Compound `NC(=Nc1ccc(CNC(=O)CCCCC2CCSS2)cc1)c1cccs1` (stereo not drawn) displayed a melting point of 152 °C.

With `Cc1c(C(F)(F)F)cnn(-c2ccc(Cl)c(C=C(Cl)C(=O)O)c2)c1=O`, the melting point was 168 °C.

In turn, `Cc1cc(C)c(Oc2cccc(C#N)c2C#N)c(C)c1` displayed a melting point of 151 to 153 °C.

For `CN(C)C(=O)C1(N2CCCC2)CCNCC1`, the melting point worked out at 150 °C.

Regarding `CC(C)(CNc1ccnc2cc(Cl)ccc12)NCc1ccncc1`, the melting point lay in the range of 157 to 159 °C.

The compound `CC(/C=C/C=C(\C)C1=Cc2cc(C(F)(F)F)ccc2OC1)=C\C(=O)O` yielded a melting point of 245 to 246 °C.

`CC(C)(C)OC(=O)NO[C@H]1CC=C[C@H]1NC(=O)OCC(Cl)(Cl)Cl` registered a melting point of 83 to 84 °C.

`Cc1ccc(S(=O)(=O)N2[C@@H](C(=N)NO)CC[C@H]2c2ccc(F)cc2)cc1` (racemic): the melting point stood at 217 °C.

In the case of `COC(=O)c1ccc2c(Cl)c(C(=O)Cl)sc2c1`, the melting point was 259 to 260 °C.

Consider `COC(=O)c1ccccc1-c1ccc(N(C)C)cn1`, for which the melting point is 161 to 163 °C.

As to `CC(=O)N1CC[C@H]2Cc3ccccc3[C@@H](c3ccccc3)N2CC1` (racemic), the melting point was 145 to 147 °C.

Take `CC1(C)Oc2ccc3nc(C#N)ccc3c2C(NCCc2ccccc2)C1O` (stereo not drawn): the melting point was 93 to 96 °C.

In the case of `COc1ncnc2c1ncn2[C@H](C)[C@](O)(Cn1cncn1)c1ccc(F)cc1F`, the melting point lay in the range of 124 to 125 °C.

`COC(=O)CCc1ccc(N2CCN(c3ccc(C(=N)NC(=O)OC)cc3)C2=O)cc1` yielded a melting point above 260 °C.

`COC(=O)c1ccccc1-c1cc(-c2ccc(OC)cc2)[nH]n1` returned a melting point of 92 to 93 °C.

(Values after a melting point compilation (Tetko et al.; mined from patent text by program, amines drawn as free bases though some values may be those of a salt).)
